Source: patent US7776847B2, “Benzisothiazoles useful for treating or preventing HCV infection” (priority 2005, dated 2010)

What follows are compounds tested on HCV replicon (assay: HCV replicon luciferase reporter assay). Settings: Hepatitis C virus, Table 5; read-out: IC50.
Format: cell-based
In short: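 IC50 is the compound amount halving luciferase signal, measured after 24–48 h treatment at various concentrations. Cells carrying the HCV replicon were pre-incubated 24 h at 37° C, 5% CO2 after seeding at about 5,000–7,500 cells/well before dosing.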
`O=C(NCCCNc1nsc2ncccc12)C1CCN(c2nccc(C(F)(F)F)n2)CC1` [Compound 533, N-(3-(isothiazolo[5,4-b]pyridin-3-ylamino)propyl)-1-(4-(trifluoromethyl)pyrimidin-2-yl)piperidine-4-carboxamide] was tested, and the IC50 was under 5 µM. Compound `CC(C)(C)OC(=O)N[C@H](C(=O)NCCNc1nsc2ccccc12)c1ccccc1` [Entry 11, (S)-tert-Butyl 2-(2-(Benzo[d]isothiazol-3-ylamino)ethylamino)-2-oxo-1-phenylethylcarbamate] has an IC50 of under 5 µM. `O=C(c1ccccc1)c1cccnc1C(=O)NCCNc1nsc2ccccc12` [Entry 12, N-(2-(Benzo[d]isothiazol-3-ylamino)ethyl)-3-benzoylpicolinamide] was tested, and the IC50 was under 5 µM. `Cc1cccc(C(=O)NCCNc2nsc3ccccc23)n1` [Entry 13, N-(2-(Benzo[d]isothiazol-3-ylamino)ethyl)-6-methylpicolinamide] gave an IC50 of over 5 µM. `COc1ccc(C(=O)NCCNc2nsc3ccccc23)cc1` [Entry 14, N-(2-(Benzo[d]isothiazol-3-ylamino)ethyl)-4-methoxybenzamide] showed an IC50 of under 5 µM. In the case of `CC(C)[C@H](NC(=O)OC(C)(C)C)C(=O)NCCNc1nsc2ccccc12` [Entry 18, (S)-tert-Butyl 1-(2-(Benzo[d]isothiazol-3-ylamino)ethylamino)-3-methyl-1-oxobutan-2-ylcarbamate], the IC50 is reported as under 5 µM. For `O=C(NCCNc1nsc2ccccc12)c1ccccn1` [Entry 25, N-(2-(Benzo[d]isothiazol-3-ylamino)ethyl)picolinamide], the IC50 was under 5 µM. In the case of `O=C(NCCNc1nsc2ccccc12)c1cccc(Br)n1` [Entry 27, N-(2-(Benzo[d]isothiazol-3-ylamino)ethyl)-6-bromopicolinamide], the IC50 is reported as over 5 µM. Compound `O=C(NCCNc1nsc2ccccc12)c1cccc(Cl)c1` [Entry 33, N-(2-(Benzo[d]isothiazol-3-ylamino)ethyl)-3-chlorobenzamide] has an IC50 of over 5 µM. Work on `O=C(NCCNc1nsc2ccccc12)c1c(Cl)cccc1Cl` [Entry 41, N-(2-(Benzo[d]isothiazol-3-ylamino)ethyl)-2,6-dichlorobenzamide] yielded an IC50 of over 5 µM. `O=C(CC1CC1)NCCNc1nsc2ccccc12` [Entry 71, N-(2-(Benzo[d]isothiazol-3-ylamino)ethyl)-2-cyclopropylacetamide] showed an IC50 of over 5 µM. For `O=C(NCCNc1nsc2ccccc12)C1CCCNC1` (centres unmarked) [Entry 73, N-(2-(Benzo[d]isothiazol-3-ylamino)ethyl)piperidine-3-carboxamide], the IC50 was over 5 µM. In the case of `N[C@H](C(=O)NCCNc1nsc2ccccc12)c1ccccc1` [Entry 74, (S)-2-Amino-N-(2-(benzo[d]isothiazol-3-ylamino)ethyl)-2-phenylacetamide], the IC50 is reported as over 5 µM. With `CC(C)[C@H](N)C(=O)NCCNc1nsc2ccccc12` [Entry 75, (S)-2-Amino-N-(2-(benzo[d]isothiazol-3-ylamino)ethyl)-3-methylbutanamide] the IC50 was over 5 µM. Compound `Cc1cccnc1C(=O)NCCNc1nsc2ccccc12` [Entry 76, N-(2-(Benzo[d]isothiazol-3-ylamino)ethyl)-3-methylpicolinamide] has an IC50 of under 5 µM. `COC(=O)c1ccc(C(=O)NCCNc2nsc3ccccc23)nc1` [Entry 77, Methyl 6-(2-(Benzo[d]isothiazol-3-ylamino)ethylcarbamoyl)nicotinate] showed an IC50 of over 5 µM. `O=C(O)c1ccc(C(=O)NCCNc2nsc3ccccc23)nc1` [Entry 78, 6-(2-(Benzo[d]isothiazol-3-ylamino)ethylcarbamoyl)nicotinic Acid] gave an IC50 of over 5 µM. With `O=C(NCCNc1nsc2ccccc12)c1ccc2ccccc2n1` [Entry 79, N-(2-(Benzo[d]isothiazol-3-ylamino)ethyl)quinoline-2-carboxamide] the IC50 was over 5 µM. Work on `COC(=O)c1cccc(C(=O)NCCNc2nsc3ccccc23)n1` [Entry 80, Methyl 6-(2-(Benzo[d]isothiazol-3-ylamino)ethylcarbamoyl)picolinate] yielded an IC50 of over 5 µM. In the case of `O=C(O)c1cccc(C(=O)NCCNc2nsc3ccccc23)n1` [Entry 81, 6-(2-(Benzo[d]isothiazol-3-ylamino)ethylcarbamoyl)picolinic Acid], the IC50 is reported as over 5 µM.
